The results in this text go back to ChEMBL document CHEMBL1133272, “A solid-phase synthesis for beta-turn mimetics of sialyl Lewis X” (Bioorg Med Chem Lett, 2000).

One experiment deals with T1, P-selectin (Homo sapiens, UniProt P16109).
T1 sequence (P16109 whole entry): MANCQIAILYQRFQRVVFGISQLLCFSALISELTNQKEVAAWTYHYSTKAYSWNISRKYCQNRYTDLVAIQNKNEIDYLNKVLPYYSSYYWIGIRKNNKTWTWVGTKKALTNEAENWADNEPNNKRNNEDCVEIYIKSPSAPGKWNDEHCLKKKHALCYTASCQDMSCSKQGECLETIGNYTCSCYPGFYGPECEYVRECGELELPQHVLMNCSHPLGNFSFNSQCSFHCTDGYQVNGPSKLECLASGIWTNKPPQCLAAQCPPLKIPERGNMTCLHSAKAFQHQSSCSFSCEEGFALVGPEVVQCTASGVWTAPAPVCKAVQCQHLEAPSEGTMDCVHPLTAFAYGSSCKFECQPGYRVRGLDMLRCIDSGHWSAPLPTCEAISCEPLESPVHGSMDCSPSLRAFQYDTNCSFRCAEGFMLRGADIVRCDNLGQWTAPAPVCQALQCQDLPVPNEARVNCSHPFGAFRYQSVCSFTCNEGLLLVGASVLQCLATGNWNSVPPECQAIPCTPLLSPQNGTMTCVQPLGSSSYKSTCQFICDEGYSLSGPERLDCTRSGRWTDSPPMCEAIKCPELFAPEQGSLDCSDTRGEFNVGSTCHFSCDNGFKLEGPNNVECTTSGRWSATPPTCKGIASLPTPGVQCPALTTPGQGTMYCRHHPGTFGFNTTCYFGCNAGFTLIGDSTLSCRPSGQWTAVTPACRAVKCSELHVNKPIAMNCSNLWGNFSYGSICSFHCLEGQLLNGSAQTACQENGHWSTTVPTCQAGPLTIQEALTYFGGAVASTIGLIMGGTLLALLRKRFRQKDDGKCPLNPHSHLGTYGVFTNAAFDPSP
The experiment in a line: In vitro inhibitory activity of compound was determined against Selectin P binding by ELISA assay.

In the next experiment the target is T2, L-selectin (Homo sapiens, UniProt P14151).
T2 sequence (P14151 whole entry): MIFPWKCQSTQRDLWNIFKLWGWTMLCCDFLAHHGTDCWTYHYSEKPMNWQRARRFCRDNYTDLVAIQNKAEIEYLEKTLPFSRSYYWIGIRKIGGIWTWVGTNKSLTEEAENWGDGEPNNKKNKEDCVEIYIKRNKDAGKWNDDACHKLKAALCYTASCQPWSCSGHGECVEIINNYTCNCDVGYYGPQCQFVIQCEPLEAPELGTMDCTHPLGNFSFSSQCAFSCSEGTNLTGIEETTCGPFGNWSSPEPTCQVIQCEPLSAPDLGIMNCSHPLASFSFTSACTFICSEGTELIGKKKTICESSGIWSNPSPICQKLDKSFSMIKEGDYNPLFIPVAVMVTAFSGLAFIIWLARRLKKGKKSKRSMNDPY
In words: In vitro inhibitory activity of compound was determined against Selectin L binding by ELISA assay.

The next experiment deals with T3, E-selectin (Homo sapiens, UniProt P16581).
T3 sequence (P16581 whole entry): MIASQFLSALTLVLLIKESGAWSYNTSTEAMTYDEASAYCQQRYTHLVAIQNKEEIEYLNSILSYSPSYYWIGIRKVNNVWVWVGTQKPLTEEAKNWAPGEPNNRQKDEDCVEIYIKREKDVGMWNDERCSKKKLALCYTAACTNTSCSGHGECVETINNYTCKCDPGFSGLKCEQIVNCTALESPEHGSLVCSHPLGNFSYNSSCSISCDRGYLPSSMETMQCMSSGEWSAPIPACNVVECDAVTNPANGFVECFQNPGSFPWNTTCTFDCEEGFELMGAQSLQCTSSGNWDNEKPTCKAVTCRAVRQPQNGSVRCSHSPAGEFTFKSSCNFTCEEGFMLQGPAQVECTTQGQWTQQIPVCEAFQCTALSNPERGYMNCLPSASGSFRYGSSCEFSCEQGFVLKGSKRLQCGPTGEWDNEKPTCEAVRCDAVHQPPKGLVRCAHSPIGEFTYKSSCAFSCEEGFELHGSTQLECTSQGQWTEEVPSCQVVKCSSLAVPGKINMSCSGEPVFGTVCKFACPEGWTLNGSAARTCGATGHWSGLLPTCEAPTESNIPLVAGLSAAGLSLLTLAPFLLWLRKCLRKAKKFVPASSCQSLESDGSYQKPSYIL
The experiment in a line: In vitro inhibitory activity of compound was determined against Selectin E binding by ELISA assay.

In the case of `CCCCCCCCCCCCCCC(CCCCCCCCCCCCCC)C(=O)N[C@@H](CO[C@@H]1O[C@@H](CO)[C@H](O)[C@H](O)[C@H]1O)C(=O)N[C@H](CCC(=O)O)C(=O)NC`, the IC50 was found to be 0.45 µM at P-selectin, 4 µM on L-selectin and 3.5 µM on E-selectin.

On to `CCCCCCCCCCCCCCC(CCCCCCCCCCCCCC)CN1CCCS[C@@H](CCC(=O)O)C(=O)N[C@H](CO[C@H]2O[C@H](CO)[C@@H](O)[C@@H](O)[C@@H]2O)C1=O`, for which the IC50 at P-selectin was 2.57 µM; on L-selectin, 2.34 µM; on E-selectin, greater than 100 µM.

On to `CC(=O)N[C@H]1[C@H]([C@H](O)[C@H](O)CO)O[C@@](O[C@H]2[C@@H](O)[C@@H](CO)O[C@@H](O[C@@H]([C@H](O[C@@H]3O[C@@H](C)[C@@H](O)[C@@H](O)[C@@H]3O)[C@H](C=O)NC(C)=O)[C@H](O)CO)[C@@H]2O)(C(=O)O)C[C@@H]1O` [SIALYL LEWIS X], for which the IC50 on P-selectin and at L-selectin was greater than 1000 µM each time.
